# Measurements reported in patent publication US20060004197A1, “Sulfonamide-based compounds as protein tyrosine kinase inhibitors” (priority 2004, published 2006).
# Molecular target: T1, Recombinant human Src (Homo sapiens, UniProt P12931)
# T1 construct: made in house; host or cells: baculovirus-insect cell system
# Assay: Src tyrosine kinase activity, poly E4Y / 32P-ATP phosphorylation assay
# Type: biochemical
# Details: Table 3, Formula II compounds; NI = no inhibition at 100 μg/mL
# Procedure: Recombinant human Src was expressed using the baculovirus-insect cell system and purified as published (Budde et al., 1993 and 2000).
# The tyrosine kinase activity of Src, Csk and FGFr was determined using poly E4Y and ^32P-ATP. Briefly, enzymes were assayed in a reaction mixture consisting of 0.15 M EPPS-NaOH (pH 8.0) with 6 mM MgCl2, 0.2 mM γ^32P-ATP (0.2-0.4 mCi/μmol), 10% glycerol, 0.1% Triton X-100, and poly E4Y. Poly E4Y is a synthetic peptide whose phosphorylation is measured in this assay by the addition of the radioactively labeled phosphate from the ATP (Budde et al., 1995). […] When ATP was varied (0, 50, 100 and 250 μM), poly E4Y was kept constant at 150 μg/ml.
# T1 sequence (P12931 whole entry): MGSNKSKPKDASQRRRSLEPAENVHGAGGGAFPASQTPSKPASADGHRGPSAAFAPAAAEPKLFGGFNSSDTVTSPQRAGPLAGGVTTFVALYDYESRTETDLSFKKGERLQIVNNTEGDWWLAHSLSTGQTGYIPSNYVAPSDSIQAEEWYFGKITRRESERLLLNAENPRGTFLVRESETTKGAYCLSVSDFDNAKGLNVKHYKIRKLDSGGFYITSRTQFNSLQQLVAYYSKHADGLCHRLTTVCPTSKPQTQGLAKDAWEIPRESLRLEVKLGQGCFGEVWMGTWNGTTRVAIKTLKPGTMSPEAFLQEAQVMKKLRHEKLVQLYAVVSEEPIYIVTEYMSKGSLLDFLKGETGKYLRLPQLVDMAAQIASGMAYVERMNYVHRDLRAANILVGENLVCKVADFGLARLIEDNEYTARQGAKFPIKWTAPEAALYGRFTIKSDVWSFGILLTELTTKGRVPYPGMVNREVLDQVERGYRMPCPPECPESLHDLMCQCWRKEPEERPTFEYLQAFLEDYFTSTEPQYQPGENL
row,SMILES,IC50
1,"CC(=O)OCCCCCOc1ccc(NS(=O)(=O)c2ccc(C)cc2)c(NS(=O)(=O)c2ccc(C)cc2)c1 [Compound 12ee, 5-[3,4-bis-(4-toluenesulfonylamino)-phenoxy]-pentyl acetate]",131 µM
2,"C=CCc1c(OCc2ccc(OC)cc2)ccc(NS(=O)(=O)c2ccc(C)cc2)c1NS(=O)(=O)c1ccc(C)cc1 [Compound 15a, N-[3-allyl-4-(4-methoxy-benzyloxy)-2-(4-toluenesulfonylamino)-phenyl]-4-toluenesulfonamide]",212 µM
3,"Cc1ccc(S(=O)(=O)Nc2ccc(C(=O)NC(C)(C)C)cc2NS(=O)(=O)c2ccc(C)cc2)cc1 [Compound 22c, N-t-butyl-3,4-bis-(4-toluenesulfonylamino)-benzamide]",300 µM
4,"Cc1ccc(S(=O)(=O)Nc2ccc(C(=O)Nc3ccccc3)cc2NS(=O)(=O)c2ccc(C)cc2)cc1 [Compound 22e, N-phenyl-3,4-bis-(4-toluenesulfonylamino)-benzamide]",149 µM
5,"Cc1ccc(S(=O)(=O)Nc2ccc(C(=O)NCc3cccc4ccccc34)cc2NS(=O)(=O)c2ccc(C)cc2)cc1 [Compound 22g, N-naphthalen-1-ylmethyl-3,4-bis-(4-toluenesulfonylamino)-benzamide]",18 µM
6,"Cc1ccc(S(=O)(=O)Nc2ccc(NC(=O)Cc3ccccc3)cc2NS(=O)(=O)c2ccc(C)cc2)cc1 [Compound 22h, 2-phenyl-N-[3,4-bis-(4-toluenesulfonylamino)-phenyl]-acetamide]",47 µM
7,"Cc1ccc(S(=O)(=O)Nc2ccc(C(=NOCc3ccccc3)c3ccccc3)cc2NS(=O)(=O)c2ccc(C)cc2)cc1 [Compound 22ii, N-[4-(benzyloxyimino-phenyl-methyl)-2-(4-toluenesulfonylamino)-phenyl]-4-toluenesulfonamide]",64 µM
8,"Cc1ccc(S(=O)(=O)Nc2ccc(NS(=O)(=O)c3c(C)noc3C)cc2NS(=O)(=O)c2ccc(C)cc2)cc1 [Compound 22j, 3,5-dimethyl-N-[3,4-bis-(4-toluenesulfonylamino)-phenyl]-isoxazole-4-sulfonamide]",25 µM
9,"COc1ccc(Oc2ccc(NS(=O)(=O)c3sc(NC(C)=O)nc3C)c(NS(=O)(=O)c3ccc(C)cc3)c2)cc1 [Compound 22q, N-{5-[4-(4-methoxy-phenoxy)-2-(4-toluenesulfonylamino)-phenylsulfamoyl]-4-methyl-thiazol-2-yl}-acetamide]",154 µM
10,"COc1ccc(Oc2ccc(NS(=O)(=O)c3c(C)noc3C)c(NS(=O)(=O)c3ccc(C)cc3)c2)cc1 [Compound 22r, 3,5-dimethyl-N-[4-(4-methoxy-phenoxy)-2-(4-toluenesulfonylamino)-phenyl]-isoxazole-4-sulfonamide]",335 µM

# Further lines, results first:
row,IC50,SMILES
1,133 µM,"COc1ccc(Oc2ccc(NS(=O)(=O)c3cccc(OC)c3)c(NS(=O)(=O)c3ccc(C)cc3)c2)cc1 [Compound 22aa, 3-methoxy-N-[4-(4-methoxy-phenoxy)-2-(4-toluenesulfonylamino)-phenyl]-benzenesulfonamide]"
2,19.5 µM,"COc1ccc(Oc2ccc(NS(=O)(=O)c3ccc(Br)s3)c(NS(=O)(=O)c3ccc(C)cc3)c2)cc1 [Compound 22bb, N-[4-(4-methoxy-phenoxy)-2-(4-toluenesulfonylamino)-phenyl]-5-bromo-thiophene-2-sulfonamide]"
3,45 µM,"COc1ccc(Oc2ccc(NS(=O)(=O)c3cccc4cnccc34)c(NS(=O)(=O)c3ccc(C)cc3)c2)cc1 [Compound 22cc, N-[4-(4-methoxy-phenoxy)-2-(4-toluenesulfonylamino)-phenyl]-isoquinoline-5-sulfonamide]"
4,50 µM,"COc1ccc(Oc2ccc(NS(=O)(=O)c3ccc(C)cc3)c(NS(=O)(=O)CCc3cccc4ccccc34)c2)cc1 [Compound 22ee, N-[4-(4-methoxy-phenoxy)-2-(2-naphthalen-1-yl-ethanesulfonylamino)-phenyl]-4-toluenesulfonamide]"
5,24 µM,"COc1ccc(Oc2ccc(NS(=O)(=O)c3ccc(C)cc3)c(NS(=O)(=O)c3ccc(Br)s3)c2)cc1 [Compound 22gg, 5-bromo-N-[5-(4-methoxy-phenoxy)-2-(4-toluenesulfonylamino)-phenyl]-thiophene-2-sulfonamide]"
6,44 µM,"COc1ccc(Oc2ccc(NS(=O)(=O)c3cnc(Cl)c(Br)c3)c(NS(=O)(=O)c3ccc(C)cc3)c2)cc1 [Compound 22t, 5-bromo-6-chloro-N-[4-(4-methoxy-phenoxy)-2-(4-toluenesulfonylamino)-phenyl]-pyridine-3-sulfonamide]"

# Same assay, conditions: Table 3; compound at 15 μg/mL
row,% Inhibition at 15 μg/mL Src (%),SMILES
1,5%,Cc1ccc(S(=O)(=O)Nc2ccc(CO)cc2NS(=O)(=O)c2ccc(C)cc2)cc1 [Compound 22l]

# Same assay, conditions: Table 3; compound at 15 μg/mL; read-out: % Inhibition at 15 μg/mL Src (%)
row,SMILES,inhibition at 15 µg/mL
1,"COc1ccc(CCNC(=O)c2ccc(NS(=O)(=O)c3ccc(C)cc3)c(NS(=O)(=O)c3ccc(C)cc3)c2)cc1 [Compound 22b, N-[2-(4-methoxy-phenyl)-ethyl]-3,4-bis-(4-toluenesulfonylamino)-benzamide]",25%
2,"Cc1ccc(S(=O)(=O)Nc2ccc(C(=O)Nc3cccnc3)cc2NS(=O)(=O)c2ccc(C)cc2)cc1 [Compound 22d, N-pyridin-3-yl-3,4-bis-(4-toluenesulfonylamino)-benzamide]",0%
3,"COC(=O)c1c(S(=O)(=O)Nc2cc(Oc3ccc(OC)cc3)ccc2NS(=O)(=O)c2ccc(C)cc2)c(C)n(C)c1C [Compound 22dd, methyl 4-[5-(4-methoxy-phenoxy)-2-(4-toluenesulfonylamino)-phenylsulfamoyl]-1,2,5-trimethyl-1H-pyrrole-3-carboxylate]",5%
4,"Cc1ccc(S(=O)(=O)Nc2ccc(C(=O)NCC(C)(C)CO)cc2NS(=O)(=O)c2ccc(C)cc2)cc1 [Compound 22f, N-(3-hydroxy-2,2-dimethyl-propyl)-3,4-bis-(4-toluenesulfonylamino)-benzamide]",3%
5,"Cc1ccc(S(=O)(=O)Nc2ccc(NS(=O)(=O)c3cccs3)cc2NS(=O)(=O)c2ccc(C)cc2)cc1 [Compound 22i, N-[3,4-bis-(4-toluenesulfonylamino)-phenyl]-thiophene-2-sulfonamide]",26%
6,"Cc1ccc(S(=O)(=O)Nc2ccc(C(=NO)c3ccccc3)cc2NS(=O)(=O)c2ccc(C)cc2)cc1 [Compound 22jj, N-[4-(hydroxyimino-phenyl-methyl)-2-(4-toluenesulfonylamino)-phenyl]-4-toluenesulfonamide]",16%
7,"CON=C(c1ccccc1)c1ccc(NS(=O)(=O)c2ccc(C)cc2)c(NS(=O)(=O)c2ccc(C)cc2)c1 [Compound 22kk, N-[4-(methoxyimino-phenyl-methyl)-2-(4-toluenesulfonylamino)-phenyl]-4-toluenesulfonamide]",23%
8,"Cc1ccc(S(=O)(=O)Nc2cc(SCc3ccccc3Cl)ccc2NS(C)(=O)=O)cc1 [Compound 22ll, N-[5-(2-chloro-benzylsulfanyl)-2-methanesulfonylamino-phenyl]-4-toluenesulfonamide]",17%
9,"Cc1ccc(S(=O)(=O)Nc2ccc(SCc3ccccc3Cl)cc2NS(C)(=O)=O)cc1 [Compound 22nn, N-[4-(2-chloro-benzylsulfanyl)-2-methanesulfonylamino-phenyl]-4-toluenesulfonamide]",21%

# Continued, values first:
row,inhibition at 15 µg/mL,SMILES
1,2%,"COc1ccc(Oc2ccc(NS(=O)(=O)c3ccc(C)cc3)c(NS(=O)(=O)c3ccc(S(C)(=O)=O)cc3)c2)cc1 [Compound 22ff, 4-methanesulfonyl-N-[5-(4-methoxy-phenoxy)-2-(4-toluenesulfonylamino)-phenyl]-benzenesulfonamide]"
2,17%,"COc1ccc(Oc2ccc(NS(=O)(=O)c3ccc(C)cc3)c(NS(=O)(=O)c3ccc(C)cc3OC)c2)cc1 [Compound 22hh, 2-methoxy-N-[5-(4-methoxy-phenoxy)-2-(4-toluenesulfonylamino)-phenyl]-4-methyl-benzenesulfonamide]"
3,22%,"COc1ccc(Oc2ccc(NS(=O)(=O)c3ccc(C)cc3)c(NS(C)(=O)=O)c2)cc1 [Compound 22m, N-[2-methanesulfonylamino-4-(4-methoxy-phenoxy)-phenyl]-4-toluenesulfonamide]"
4,5%,"COc1ccc(Oc2ccc(NS(=O)(=O)c3ccc(C)cc3)c(NS(=O)(=O)c3c(C)noc3C)c2)cc1 [Compound 22n, 3,5-dimethyl-N-[5-(4-methoxy-phenoxy)-2-(4-toluenesulfonylamino)-phenyl]-isoxazole-4-sulfonamide]"
5,0%,"COc1ccc(Oc2ccc(NS(=O)(=O)c3ccc(C)cc3)c(NS(=O)(=O)c3cn(C)cn3)c2)cc1 [Compound 22o, N-[5-(4-methoxy-phenoxy)-2-(4-toluenesulfonylamino)-phenyl]-1-methyl-1H-imidazole-4-sulfonamide]"
6,17%,"COc1ccc(Oc2ccc(NS(C)(=O)=O)c(NS(=O)(=O)c3ccc(C)cc3)c2)cc1 [Compound 22p, N-[2-methanesulfonylamino-5-(4-methoxy-phenoxy)-phenyl]-4-toluenesulfonamide]"
7,3%,"COc1ccc(Oc2ccc(NS(=O)(=O)c3cn(C)cn3)c(NS(=O)(=O)c3ccc(C)cc3)c2)cc1 [Compound 22s, N-[4-(4-methoxy-phenoxy)-2-(4-toluenesulfonylamino)-phenyl]-1-methyl-1H-imidazole-4-sulfonamide]"

# Same assay, conditions: Table 3; compound at 50 μg/mL (starred values); read-out: % Inhibition Src (%), * = assayed at 50 μg/mL
row,inhibition at 50 µg/mL,SMILES
1,9%,"Cc1ccc(S(=O)(=O)Nc2ccc(OCCCCCO)cc2NS(=O)(=O)c2ccc(C)cc2)cc1 [Compound 12s, N-[4-(5-hydroxy-pentyloxy)-2-(4-toluenesulfonylamino)-phenyl]-4-toluenesulfonamide]"
